We go through 7 molecules from ChEMBL document CHEMBL1127703, “Structural requirements for respiratory inhibition by rotenoids; is an intact B/C ring system essential?” (Bioorg Med Chem Lett, 1994).

A short description of the experiment: Tested for the ability to block NADH dehydrogenase in a preparation of submitochondrial particles obtained from blow fly flight muscle. Type of experiment: tissue-based, Calliphoridae, Muscle tissue.
Take `C=C(C)[C@H]1Cc2cc(C(=O)n3c(C)nc4ccccc43)ccc2O1`: the “-Log IC50” value was found to be 7.82.
With `C=C(C)[C@H]1Cc2c(ccc(Cn3c(C)nc4ccccc43)c2OC)O1`, the “-Log IC50” value is 6.82.
Regarding `C=C(C)[C@H]1Cc2c(ccc(C(=O)n3c(C)nc4ccccc43)c2OC)O1`, the “-Log IC50” value turned out to be 6.6.
Next, `COc1ccc(CC2NCCc3cc4c(cc32)C[C@H](C(C)CSc2ccccc2)O4)cc1OC` (some centres not stated): 7.9.
Next, `C=C(C)[C@H]1Cc2cc3c(cc2O1)CCNC3Cc1ccc(OC)c(OC)c1` (some centres not stated): 6.76; `C=C(C)[C@H]1Cc2cc(Cn3c(C)nc4ccccc43)ccc2O1`: 7.3.
For the molecule `C=C(C)[C@H]1Cc2c(ccc3c2O[C@@H]2COc4cc(OC)c(OC)cc4[C@@H]2C3=O)O1` [ROTENONE], the “-Log IC50” value came to 8.7.
